The results in this text go back to patent publication US10882825B2, “Non-solvated crystal, preparation method and application thereof” (SHENZHEN CHIPSCREEN BIOSCIENCES CO., LTD., priority 2016, dated 2021).

The structures appear in SMILES notation.

The nature of the data set: Stability test of the crystal form (high temperature, high humidity, strong light irradiation; X-ray powder diffraction and HPLC content). It is filed as physicochemical. The conditions noted are these: high temperature (60° C.), high humidity (90%), strong light irradiation (4500 Lx); day 0 vs day 10. As for the experimental part:
Test conditions of X-ray powder diffraction: instrument: D/MAX-1200 (Rigaku, Japan); radiation source: Cu-Kα (40 kV, 40 mA).
Test conditions of stability: high temperature (60° C.), high humidity (90%) and strong light irradiation (4500 Lx) tests are performed according to the Chinese Pharmacopoeia 2010 edition, Part II, Appendix XIX C.
Test conditions of HPLC: instrument: Dionex UltiMate3000; column: Shim-pack VP-ODS 5 μm 250 L×4.6; detector: VWD-3100, detection wavelength: 256 nm; mobile phase: methanol-water-glacial acetic acid (30:70:0.4); flow rate: 1.0 mL/min, column temperature: 30° C.
High temperature (60° C.), high humidity (90%) and strong light irradiation (4500 Lx) tests of the non-solvated crystal A of example 1, non-solvated crystal B of example 2, and non-solvated crystal C of example 3 were performed according to the Chinese Pharmacopoeia 2010 edition, Part II, Appendix XIX C. Samples on day 0 and day 10 respectively were taken to determine the X-ray powder diffraction pattern and content (HPLC method).

`COc1ccc2c(Oc3ccc4c(C(=O)Nc5ccccc5N)cccc4c3)ccnc2c1` [non-solvated crystal A, N-(2-aminophenyl)-6-(7-methoxyquinoline-4-oxo)-1-naphthaleneformamide]: the “content (HPLC method) after stability test” value is on record as “does not change significantly” and the “crystal form (X-ray powder diffraction pattern) after stability test” value is reported as “remain unchanged in their original crystal forms”.
